{
  "source": "PubChem BioAssay (NCI)",
  "assay_in_all_cases": "DTP human tumour cell line panel, 48 h",
  "key": {"[1]": {"system": "786-0 renal"}, "[2]": {"system": "A498 renal"}, "[3]": {"system": "A549 NSCLC"}, "[4]": {"system": "ACHN renal"}, "[5]": {"system": "BT-549 breast"}, "[6]": {"system": "CAKI-1 renal"}, "[7]": {"system": "CCRF-CEM leukemia"}, "[8]": {"system": "COLO 205 colon"}, "[9]": {"system": "DU-145 prostate"}, "[10]": {"system": "EKVX NSCLC"}, "[11]": {"system": "HCT-116 colon"}, "[12]": {"system": "HCT-15 colon"}, "[13]": {"system": "HL-60(TB) leukemia"}, "[14]": {"system": "HOP-62 NSCLC"}, "[15]": {"system": "HS 578T breast"}, "[16]": {"system": "HT29 colon"}, "[17]": {"system": "IGROV1 ovarian"}, "[18]": {"system": "K-562 leukemia"}, "[19]": {"system": "KM12 colon"}, "[20]": {"system": "LOX IMVI melanoma"}, "[21]": {"system": "M14 melanoma"}, "[22]": {"system": "MALME-3M melanoma"}, "[23]": {"system": "MCF7 breast"}, "[24]": {"system": "MDA-MB-231 breast"}, "[25]": {"system": "MDA-MB-435"}, "[26]": {"system": "MDA-N"}, "[27]": {"system": "MOLT-4 leukemia"}, "[28]": {"system": "NCI-H226 lung"}, "[29]": {"system": "NCI-H23 lung"}, "[30]": {"system": "NCI-H460 lung"}, "[31]": {"system": "NCI/ADR-RES ovarian"}, "[32]": {"system": "OVCAR-3 ovarian"}, "[33]": {"system": "OVCAR-4 ovarian"}, "[34]": {"system": "OVCAR-5 ovarian"}, "[35]": {"system": "OVCAR-8 ovarian"}, "[36]": {"system": "PC-3 prostate"}, "[37]": {"system": "RPMI-8226 leukemia"}, "[38]": {"system": "RXF 393 renal"}, "[39]": {"system": "SF-268 CNS"}, "[40]": {"system": "SF-295 CNS"}, "[41]": {"system": "SF-539 CNS"}, "[42]": {"system": "SK-MEL-2 melanoma"}, "[43]": {"system": "SK-MEL-28 melanoma"}, "[44]": {"system": "SK-MEL-5 melanoma"}, "[45]": {"system": "SK-OV-3 ovarian"}, "[46]": {"system": "SN12C renal"}, "[47]": {"system": "SNB-19 CNS"}, "[48]": {"system": "SNB-75 CNS"}, "[49]": {"system": "SR leukemia"}, "[50]": {"system": "SW-620 colon"}, "[51]": {"system": "T-47D breast"}, "[52]": {"system": "TK-10 renal"}, "[53]": {"system": "U251 CNS"}, "[54]": {"system": "UACC-257 melanoma"}, "[55]": {"system": "UACC-62 melanoma"}, "[56]": {"system": "UO-31 renal"}},
  "note": "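Test compounds were applied to cells in 96-well plates for 48 hours at 5 doses. The concentration for full growth arrest is given as TGI.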",
  "data": [
    {"smiles": "CCCCC/C=C\\C=C1\\C(=O)C=C[C@@H]1C/C=C\\CCCC(=O)O", "values": [
      {"measurement": "TGI", "setting": "[1]", "result": 9.73, "unit": "µM"},
      {"measurement": "TGI", "setting": "[2]", "result": 21.4, "unit": "µM"},
      {"measurement": "TGI", "setting": "[3]", "result": 18.7, "unit": "µM"},
      {"measurement": "TGI", "setting": "[4]", "result": 9.48, "unit": "µM"},
      {"measurement": "TGI", "setting": "[5]", "result": 5.13, "unit": "µM"},
      {"measurement": "TGI", "setting": "[6]", "result": 14.9, "unit": "µM"},
      {"measurement": "TGI", "setting": "[7]", "result": 3.28, "unit": "µM"},
      {"measurement": "TGI", "setting": "[8]", "result": 9.36, "unit": "µM"},
      {"measurement": "TGI", "setting": "[9]", "result": 15.5, "unit": "µM"},
      {"measurement": "TGI", "setting": "[10]", "result": 5.61, "unit": "µM"},
      {"measurement": "TGI", "setting": "[11]", "result": 2.74, "unit": "µM"},
      {"measurement": "TGI", "setting": "[12]", "result": 14.9, "unit": "µM"},
      {"measurement": "TGI", "setting": "[13]", "result": 17.9, "unit": "µM"},
      {"measurement": "TGI", "setting": "[14]", "result": 8.62, "unit": "µM"},
      {"measurement": "TGI", "setting": "[15]", "result": 13.4, "unit": "µM"},
      {"measurement": "TGI", "setting": "[16]", "result": 12, "unit": "µM"},
      {"measurement": "TGI", "setting": "[17]", "result": 8.93, "unit": "µM"},
      {"measurement": "TGI", "setting": "[18]", "result": 60, "unit": "µM"},
      {"measurement": "TGI", "setting": "[19]", "result": 11.9, "unit": "µM"},
      {"measurement": "TGI", "setting": "[20]", "result": 8.19, "unit": "µM"},
      {"measurement": "TGI", "setting": "[21]", "result": 15.1, "unit": "µM"},
      {"measurement": "TGI", "setting": "[22]", "result": 25, "unit": "µM"},
      {"measurement": "TGI", "setting": "[23]", "result": 12.9, "unit": "µM"},
      {"measurement": "TGI", "setting": "[24]", "result": 18.7, "unit": "µM"},
      {"measurement": "TGI", "setting": "[25]", "result": 9.16, "unit": "µM"},
      {"measurement": "TGI", "setting": "[26]", "result": 7.14, "unit": "µM"},
      {"measurement": "TGI", "setting": "[27]", "result": 60, "unit": "µM"},
      {"measurement": "TGI", "setting": "[28]", "result": 14.8, "unit": "µM"},
      {"measurement": "TGI", "setting": "[29]", "result": 15.5, "unit": "µM"},
      {"measurement": "TGI", "setting": "[30]", "result": 16.5, "unit": "µM"},
      {"measurement": "TGI", "setting": "[31]", "result": 2.66, "unit": "µM"},
      {"measurement": "TGI", "setting": "[32]", "result": 9.82, "unit": "µM"},
      {"measurement": "TGI", "setting": "[33]", "result": 6.28, "unit": "µM"},
      {"measurement": "TGI", "setting": "[34]", "result": 9.72, "unit": "µM"},
      {"measurement": "TGI", "setting": "[35]", "result": 3.73, "unit": "µM"},
      {"measurement": "TGI", "setting": "[36]", "result": 5.13, "unit": "µM"},
      {"measurement": "TGI", "setting": "[37]", "result": 3.15, "unit": "µM"},
      {"measurement": "TGI", "setting": "[38]", "result": 6.93, "unit": "µM"},
      {"measurement": "TGI", "setting": "[39]", "result": 13.6, "unit": "µM"},
      {"measurement": "TGI", "setting": "[40]", "result": 11.5, "unit": "µM"},
      {"measurement": "TGI", "setting": "[41]", "result": 12.8, "unit": "µM"},
      {"measurement": "TGI", "setting": "[42]", "result": 9.85, "unit": "µM"},
      {"measurement": "TGI", "setting": "[43]", "result": 13.9, "unit": "µM"},
      {"measurement": "TGI", "setting": "[44]", "result": 11.2, "unit": "µM"},
      {"measurement": "TGI", "setting": "[45]", "result": 14.4, "unit": "µM"},
      {"measurement": "TGI", "setting": "[46]", "result": 8.06, "unit": "µM"},
      {"measurement": "TGI", "setting": "[47]", "result": 12.1, "unit": "µM"},
      {"measurement": "TGI", "setting": "[48]", "result": 17.7, "unit": "µM"},
      {"measurement": "TGI", "setting": "[49]", "result": 5.53, "unit": "µM"},
      {"measurement": "TGI", "setting": "[50]", "result": 9.09, "unit": "µM"},
      {"measurement": "TGI", "setting": "[51]", "result": 24.5, "unit": "µM"},
      {"measurement": "TGI", "setting": "[52]", "result": 18, "unit": "µM"},
      {"measurement": "TGI", "setting": "[53]", "result": 8.39, "unit": "µM"},
      {"measurement": "TGI", "setting": "[54]", "result": 14.7, "unit": "µM"},
      {"measurement": "TGI", "setting": "[55]", "result": 12, "unit": "µM"},
      {"measurement": "TGI", "setting": "[56]", "result": 13.4, "unit": "µM"}
    ]}
  ]
}
